Assay results: article PMC11305387, “AlphaFold accelerated discovery of psychotropic agonists targeting the trace amine–associated receptor 1” (Science Advances, 2024)

Experiments:
[1] = target: T1, hTAAR1 (Homo sapiens, UniProt Q96RJ0); experiment: cAMP accumulation assay (GloSensor-22F); format: cell-based
T1 construct: expressed in transfected cells; host or cells: Expi293F
T1 sequence (Q96RJ0 1-339): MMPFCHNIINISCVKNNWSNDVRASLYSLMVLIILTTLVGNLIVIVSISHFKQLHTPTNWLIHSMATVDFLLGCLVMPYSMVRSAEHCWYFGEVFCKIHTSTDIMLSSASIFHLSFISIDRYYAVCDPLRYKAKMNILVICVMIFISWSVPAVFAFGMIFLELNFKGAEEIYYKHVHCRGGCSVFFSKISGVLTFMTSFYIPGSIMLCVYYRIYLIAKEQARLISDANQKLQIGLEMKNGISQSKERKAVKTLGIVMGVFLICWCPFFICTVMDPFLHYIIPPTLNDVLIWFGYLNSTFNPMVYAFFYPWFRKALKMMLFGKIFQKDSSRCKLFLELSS
Procedure: cAMP accumulation was assessed using a previously described system with some modifications ([45]). hTAAR1 and GloSensor-22F were transected with a 1:1 gene dose (1 μg/ml) in Expi293F cells for 48 hours. Cells were then resuspended in assay buffer [Hanks’ balanced salt solution (HBSS), 10 mM Hepes, 2 mM […] (Promega), and 300 μM 3-isobutyl-1-methylxanthine (Sigma-Aldrich)] and seeded with 25,000 cells per well to a white 384-well plate (CulturPlate, PerkinElmer) and incubated for 1 hour in the dark at RT. After a baseline read, compounds were added, and the plate was read for a further 1 hour (SPARK 10 M, Tecan) with 10-min intervals. The final read at 1 hour was used for analysis.

[2] = tested on: WT and TAAR1-KO mice; experiment: Open-field test: baseline locomotion and MK-801-induced hyperlocomotion; format: in vivo; settings: compound 65 1 mg/kg, risperidone 0.03 mg/kg
Procedure: To assess the influence of the compound on baseline locomotion and MK-801–induced hyperlocomotion, mice were subjected to open-field testing on four occasions separated by 96 hours. The first occasion was a mock test session where all mice were injected with vehicle only, serving to reduce the effect of novelty on subsequent sessions. The next three sessions were true test sessions with pretreatment of either compound 65, risperidone, or vehicle, followed by MK-801. The R package agricolae was used to generate a randomized block design, randomizing treatment order across sex, genotype, and test session. After injection with either compound 65 (1 mg/kg), risperidone (0.03 mg/kg), or vehicle intraperitoneally, mice were immediately placed in the open field and recorded for 15 min. They were then injected with MK-801 (0.35 mg/kg intraperitoneal) and recorded again for 60 min. The OFT arena measured 46 cm by 46 cm with gray floor and walls. The brightness at the center of each arena was 30 to 50 lux. The arenas were cleaned with 70% ethanol between each animal. Video from a camera mounted in the ceiling was analyzed using EthoVision XT11.5 (Noldus) software.

[3] = target: T1, hTAAR1; experiment: G protein (mini-Gs) recruitment luminescence complementation assay, agonist mode; format: cell-based
Procedure: The 62 predicted ligands were purchased from commercial vendors and tested for activity at a concentration of 20 μM in a luminescence complementation–based assay measuring recruitment of mini-Gs to the human TAAR1 ([38]).
To monitor TAAR1 activation by compounds, we used our previously described system. […] Cells were then reseeded in solid white, 96-well plates (Corning) with 90 μl of cell suspension per well. Luminescence was read using a plate reader for 5 min (SPARK 10 M, Tecan) before the addition of compounds to ensure signal stability. Ten microliters of each compound diluted in DPBS was added, and luminescence from each well was read for 10 min, with 100-ms read time per well. The A2AR counter-screen was performed using the same protocol. In these experiments, the hTAAR1 was replaced by a C-terminally SmBiT-tagged hA2AR construct.

[4] = target: T2, H1 receptor (Homo sapiens, UniProt P35367); experiment: PRESTO-TANGO β-arrestin recruitment; format: cell-based; settings: concentration-response curves (fig. S10)
T2 construct: TANGO fusion module (own knowledge, Kroeze et al.: C-terminal V2 tail, TEV site and tTA); 1000000068; host or cells: HTLA (HEK293-derived)
T2 sequence (P35367 whole entry, the tested form may be a part): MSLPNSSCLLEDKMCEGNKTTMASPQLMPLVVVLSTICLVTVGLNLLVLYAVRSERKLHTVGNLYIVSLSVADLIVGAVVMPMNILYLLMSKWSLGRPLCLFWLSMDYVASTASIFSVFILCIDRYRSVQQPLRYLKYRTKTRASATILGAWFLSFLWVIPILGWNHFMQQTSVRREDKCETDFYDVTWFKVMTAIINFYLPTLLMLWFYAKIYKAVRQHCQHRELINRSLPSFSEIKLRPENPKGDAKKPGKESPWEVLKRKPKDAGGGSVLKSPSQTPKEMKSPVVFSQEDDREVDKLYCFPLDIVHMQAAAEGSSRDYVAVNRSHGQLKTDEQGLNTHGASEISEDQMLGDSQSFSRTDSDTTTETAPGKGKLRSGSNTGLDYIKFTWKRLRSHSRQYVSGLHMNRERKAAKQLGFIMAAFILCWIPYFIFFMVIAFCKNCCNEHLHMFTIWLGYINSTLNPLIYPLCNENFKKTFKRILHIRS
Procedure: Assessment of receptor activation by compounds at all human aminergic receptors were carried out using a modified version of the PRESTO-TANGO method. […] The plate was spun down, and 5 μl of a 1:25 dilution (in DPBS) of polyethylenimine (PEI) derivative (Transporter 5, Polysciences) was added (1:4 cDNA to PEI ratio) and incubated for 20 min at room temperature (RT). […] Luminescence signal was detected using a plate-reader (SPARK, Tecan) with 100-ms integration time and a 100-ms delay between well reads.

Compound: CC1=C(c2ccco2)CNCC1 [Compound 65]
- EC50 [1]: 0.398 nM
- effect on locomotion ([2]; TAAR1-KO mice): did not exhibit such an effect
- effect on MK-801–induced hyperlocomotion ([2]; WT mice, MK-801 0.35 mg/kg): significant decrease
- effect on baseline locomotion ([2]; WT mice, versus vehicle): trend toward decreased locomotion
- EC50 ([3]; TAAR1, G protein recruitment assay, read-out: pEC50 (converted)): 25.1 nM
- fold more potent than Ulotaront ([3]; TAAR1 G protein recruitment): > 25 fold
- agonism at the H1 receptor [4]: lacked agonism
